Source: publication PMC10004634 (PLOS ONE, 2023)

How the values were obtained:
CSK = CSK (Homo sapiens, UniProt P41240); assay: KinAffinity cell-based binding assay using PBMC; parameters: purchased Carna Biosciences Inc
U-2932 cells = assay: SILAC phosphoproteomic analysis
Protocol: For differential SILAC encoding, both cells were grown in arginine- and lysine-deficient culture medium containing light (Arg0/Lys0) or heavy (Arg10/Lys8) isotopic forms of L-arginine and L-lysine (SILAC medium). […] For mass spectrometric analysis, phosphopeptide-enriched samples were loaded onto a reversed phase analytical column, resolved by an acetonitrile gradient using a nanoflow HPLC system and directly electrosprayed via a nanoelectrospray ion source into an LTQ-Orbitrap Velos mass spectrometer (Thermo Fisher Scientific). […] A false discovery rate (FDR) of 0.01 was selected for protein and peptide identification, and a posterior error probability of ≤0.1 for each peptide-to-spectral match was required. The resulting list of phosphosites exported from the MaxQuant software was filtered for class-I sites (only serine, threonine, or tyrosine assignments with a localization probability of ≥0.75) [33] and used for all subsequent biostatistical analysis. […] Gaussian regression analysis on the histogram plot of these log2-transformed ratios was performed using Sigmaplot (version 10.0; Systat Software Inc.). The obtained values for the mean and standard deviation across the whole quantitative dataset were used to determine thresholds for significant regulation of at least ±2.5 σ. […] Furthermore, only phosphosites conforming to this criterion and showing consistent regulation in both biological replicates were considered as regulated.

RIPK2 = RIPK2 (Homo sapiens, UniProt O43353); assay: KINOMEscan binding assay; details: 300 nM; read-out: inhibition of kinase binding (KINOMEscan)
PKNB(M.tuberculosis) = PKNB(M.tuberculosis) (Mycobacterium tuberculosis, UniProt P9WI81); assay: biochemical; details: read-out: Percent control / Ibrutinib
PKNB(M.tuberculosis), sequence (P9WI81 whole entry, looked up): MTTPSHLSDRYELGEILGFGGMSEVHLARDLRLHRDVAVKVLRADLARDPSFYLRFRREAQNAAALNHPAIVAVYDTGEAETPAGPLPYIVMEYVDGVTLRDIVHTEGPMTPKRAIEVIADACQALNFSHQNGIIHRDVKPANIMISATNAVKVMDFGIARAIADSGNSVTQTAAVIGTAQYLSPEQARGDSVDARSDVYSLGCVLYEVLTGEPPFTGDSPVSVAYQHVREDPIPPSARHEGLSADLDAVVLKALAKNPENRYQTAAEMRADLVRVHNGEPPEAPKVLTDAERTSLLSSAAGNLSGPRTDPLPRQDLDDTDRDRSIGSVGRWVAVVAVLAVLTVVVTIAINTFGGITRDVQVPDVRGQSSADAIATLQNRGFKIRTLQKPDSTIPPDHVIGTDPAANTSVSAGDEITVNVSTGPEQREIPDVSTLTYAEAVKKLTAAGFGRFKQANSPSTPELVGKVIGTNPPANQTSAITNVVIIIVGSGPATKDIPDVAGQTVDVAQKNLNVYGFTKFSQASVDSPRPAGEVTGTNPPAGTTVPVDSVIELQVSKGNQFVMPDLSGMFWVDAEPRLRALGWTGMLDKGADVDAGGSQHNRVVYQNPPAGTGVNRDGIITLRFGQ

CSK, sequence (P41240 whole entry): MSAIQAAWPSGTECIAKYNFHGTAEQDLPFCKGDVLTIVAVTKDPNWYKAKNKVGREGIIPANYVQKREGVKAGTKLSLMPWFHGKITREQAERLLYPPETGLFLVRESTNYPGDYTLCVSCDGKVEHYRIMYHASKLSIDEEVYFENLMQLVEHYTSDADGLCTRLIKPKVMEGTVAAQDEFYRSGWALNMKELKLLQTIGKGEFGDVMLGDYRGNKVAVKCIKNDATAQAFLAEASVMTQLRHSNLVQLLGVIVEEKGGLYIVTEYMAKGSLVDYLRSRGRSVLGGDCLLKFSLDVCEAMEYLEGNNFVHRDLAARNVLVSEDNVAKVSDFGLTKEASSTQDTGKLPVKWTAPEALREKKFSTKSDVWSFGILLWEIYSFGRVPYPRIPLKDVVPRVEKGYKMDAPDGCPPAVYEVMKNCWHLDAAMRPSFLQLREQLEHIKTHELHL
RIPK2, sequence (O43353 whole entry): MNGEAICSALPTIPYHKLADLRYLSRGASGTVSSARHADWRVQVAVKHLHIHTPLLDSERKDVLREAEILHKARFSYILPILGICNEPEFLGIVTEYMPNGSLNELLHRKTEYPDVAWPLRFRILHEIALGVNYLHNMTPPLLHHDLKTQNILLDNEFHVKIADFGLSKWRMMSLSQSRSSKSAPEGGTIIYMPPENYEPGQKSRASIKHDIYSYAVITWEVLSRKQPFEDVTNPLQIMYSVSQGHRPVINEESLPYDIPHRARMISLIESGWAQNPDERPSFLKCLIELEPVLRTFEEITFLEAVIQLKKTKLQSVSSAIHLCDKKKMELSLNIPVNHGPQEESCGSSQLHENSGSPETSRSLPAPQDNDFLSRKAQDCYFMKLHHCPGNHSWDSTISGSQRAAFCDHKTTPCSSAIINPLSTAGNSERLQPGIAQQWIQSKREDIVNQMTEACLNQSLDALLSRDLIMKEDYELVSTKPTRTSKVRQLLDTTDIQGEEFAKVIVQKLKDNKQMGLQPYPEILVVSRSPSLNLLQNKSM

CC#CC(=O)N1CC[C@@H](n2c(=O)n(-c3ccc(Oc4ccccc4)cc3)c3c(N)ncnc32)C1 [Tirabrutinib]
Kd (CSK): > 3 µM | number of downregulated (suppressed) phosphorylation sites (U-2932 cells; 1 μM, 1 h, ratio <0.664): 30 | number of upregulated (induced) phosphorylation sites (U-2932 cells; 1 μM, 1 h, ratio >1.506): four | Tirabrutinib/ctrl. rep. 1 (U-2932 cells; AKT1S1 S88): 1.16 | Tirabrutinib/ctrl. rep. 2 (U-2932 cells; AKT1S1 S88): 1.03 | Tirabrutinib/ctrl. rep. 1 (U-2932 cells; AKT1S1 S183): 0.86 | Tirabrutinib/ctrl. rep. 2 (U-2932 cells; AKT1S1 S183): 0.93 | Tirabrutinib/ctrl. rep. 2 (U-2932 cells; AKT1S1 T97): 0.84 | Tirabrutinib/ctrl. rep. 1 (U-2932 cells; AKT1S1 T246): 0.84 | Tirabrutinib/ctrl. rep. 2 (U-2932 cells; AKT1S1 T246): 0.87 | Tirabrutinib/ctrl. rep. 2 (U-2932 cells; AKT1 S124): 0.96 | Tirabrutinib/ctrl. rep. 1 (U-2932 cells; AKT2 S126): 1.09 | Tirabrutinib/ctrl. rep. 2 (U-2932 cells; AKT2 S126): 0.97 | Tirabrutinib/ctrl. rep. 1 (U-2932 cells; ATF2 S90): 0.87 | Tirabrutinib/ctrl. rep. 2 (U-2932 cells; ATF2 S90): 0.93 | Tirabrutinib/ctrl. rep. 1 (U-2932 cells; ATF2 S112): 1.02 | Tirabrutinib/ctrl. rep. 2 (U-2932 cells; ATF2 S112): 1.00 | Tirabrutinib/ctrl. rep. 1 (U-2932 cells; ATF2 T71): 0.99 | Tirabrutinib/ctrl. rep. 2 (U-2932 cells; ATF2 T71): 0.86 | Tirabrutinib/ctrl. rep. 1 (U-2932 cells; ATF2 T73): 0.69 | Tirabrutinib/ctrl. rep. 2 (U-2932 cells; CARD11 S483): 1.78 | Tirabrutinib/ctrl. rep. 1 (U-2932 cells; CARD11 S610): 0.99 | Tirabrutinib/ctrl. rep. 2 (U-2932 cells; CARD11 S610): 0.96 | Tirabrutinib/ctrl. rep. 1 (U-2932 cells; CARD11 S903): 1.10 | Tirabrutinib/ctrl. rep. 2 (U-2932 cells; CARD11 S903): 1.31 | Tirabrutinib/ctrl. rep. 1 (U-2932 cells; CARD11 S910): 1.78 | Tirabrutinib/ctrl. rep. 2 (U-2932 cells; CARD11 S910): 0.95 | Tirabrutinib/ctrl. rep. 1 (U-2932 cells; CARD11 S942): 0.96 | Tirabrutinib/ctrl. rep. 2 (U-2932 cells; CARD11 S942): 0.97 | Tirabrutinib/ctrl. rep. 1 (U-2932 cells; ERF S21): 0.26 | Tirabrutinib/ctrl. rep. 1 (U-2932 cells; HSP27 S78): 1.14 | Tirabrutinib/ctrl. rep. 2 (U-2932 cells; HSP27 S78): 0.79 | Tirabrutinib/ctrl. rep. 1 (U-2932 cells; HSP27 S82): 1.09 | Tirabrutinib/ctrl. rep. 2 (U-2932 cells; HSP27 S82): 0.76 | Tirabrutinib/ctrl. rep. 1 (U-2932 cells; HSP27 S86): 0.81 | Tirabrutinib/ctrl. rep. 2 (U-2932 cells; HSP27 S86): 1.16 | Tirabrutinib/ctrl. rep. 1 (U-2932 cells; IKBKB S550): 0.86 | Tirabrutinib/ctrl. rep. 2 (U-2932 cells; IKBKB S550): 0.97 | Tirabrutinib/ctrl. rep. 1 (U-2932 cells; IKBKB S672): 1.04 | Tirabrutinib/ctrl. rep. 2 (U-2932 cells; IKBKB S672): 1.20 | Tirabrutinib/ctrl. rep. 1 (U-2932 cells; IKBKG S455): 1.15 | Tirabrutinib/ctrl. rep. 2 (U-2932 cells; IKBKG S455): 0.87 | Regulation of Phosphorylation Site (U-2932 cells; MAPK1 T185): ↓ | Tirabrutinib/ctrl. rep. 1 (U-2932 cells; MAPK1 T185): 0.23 | Tirabrutinib/ctrl. rep. 2 (U-2932 cells; MAPK1 T185): 0.41 | Regulation of Phosphorylation Site (U-2932 cells; MAPK1 Y187): ↓ | Tirabrutinib/ctrl. rep. 1 (U-2932 cells; MAPK1 Y187): 0.23 | Tirabrutinib/ctrl. rep. 2 (U-2932 cells; MAPK1 Y187): 0.41 | Tirabrutinib/ctrl. rep. 1 (U-2932 cells; NHE1 S602): 0.96 | Tirabrutinib/ctrl. rep. 2 (U-2932 cells; NHE1 S602): 0.92 | Tirabrutinib/ctrl. rep. 1 (U-2932 cells; NHE1 S605): 0.95 | Tirabrutinib/ctrl. rep. 2 (U-2932 cells; NHE1 S605): 0.92 | Tirabrutinib/ctrl. rep. 1 (U-2932 cells; NHE1 S785): 1.08 | Tirabrutinib/ctrl. rep. 2 (U-2932 cells; NHE1 S785): 1.26 | Tirabrutinib/ctrl. rep. 1 (U-2932 cells; NHE1 S796): 0.80 | Tirabrutinib/ctrl. rep. 2 (U-2932 cells; NHE1 S796): 0.78 | Tirabrutinib/ctrl. rep. 1 (U-2932 cells; PEA15 S82): 0.89 | Tirabrutinib/ctrl. rep. 2 (U-2932 cells; PEA15 S82): 0.86 | Tirabrutinib/ctrl. rep. 1 (U-2932 cells; PEA15 S137): 1.18 | Tirabrutinib/ctrl. rep. 2 (U-2932 cells; PEA15 S137): 1.03 | Tirabrutinib/ctrl. rep. 1 (U-2932 cells; PIK3AP1 S642): 1.22 | Tirabrutinib/ctrl. rep. 2 (U-2932 cells; PIK3AP1 S642): 0.88 | Tirabrutinib/ctrl. rep. 1 (U-2932 cells; PIK3AP1 T151): 1.02 | Tirabrutinib/ctrl. rep. 2 (U-2932 cells; PIK3AP1 T151): 1.07 | Tirabrutinib/ctrl. rep. 1 (U-2932 cells; PLCG2 S341): 0.84 | Tirabrutinib/ctrl. rep. 2 (U-2932 cells; PLCG2 S341): 1.25 | Tirabrutinib/ctrl. rep. 1 (U-2932 cells; PLCG2 S871): 0.99 | Tirabrutinib/ctrl. rep. 2 (U-2932 cells; PLCG2 S871): 0.98 | Tirabrutinib/ctrl. rep. 1 (U-2932 cells; PLCG2 S1236): 1.17 | Tirabrutinib/ctrl. rep. 2 (U-2932 cells; PLCG2 S1236): 0.99 | Tirabrutinib/ctrl. rep. 1 (U-2932 cells; PRKCB T497): 0.99 | Tirabrutinib/ctrl. rep. 2 (U-2932 cells; PRKCB T497): 1.00 | Tirabrutinib/ctrl. rep. 1 (U-2932 cells; PRKCB T500): 0.99 | Tirabrutinib/ctrl. rep. 2 (U-2932 cells; PRKCB T500): 1.00 | Tirabrutinib/ctrl. rep. 1 (U-2932 cells; PRKCB T641): 1.02 | Tirabrutinib/ctrl. rep. 2 (U-2932 cells; PRKCB T641): 1.00 | Tirabrutinib/ctrl. rep. 1 (U-2932 cells; PRKD2 S189): 0.90 | Tirabrutinib/ctrl. rep. 2 (U-2932 cells; PRKD2 S189): 0.70 | Tirabrutinib/ctrl. rep. 1 (U-2932 cells; PRKD2 S206): 0.86 | Tirabrutinib/ctrl. rep. 2 (U-2932 cells; PRKD2 S206): 0.83 | Tirabrutinib/ctrl. rep. 1 (U-2932 cells; PRKD2 S375): 0.91 | Tirabrutinib/ctrl. rep. 2 (U-2932 cells; PRKD2 S375): 0.81 | Tirabrutinib/ctrl. rep. 1 (U-2932 cells; PRKD2 S706): 0.77 | Tirabrutinib/ctrl. rep. 2 (U-2932 cells; PRKD2 S706): 0.50 | Tirabrutinib/ctrl. rep. 1 (U-2932 cells; PRKD2 S710): 0.90 | Tirabrutinib/ctrl. rep. 2 (U-2932 cells; PRKD2 S710): 0.77 | Tirabrutinib/ctrl. rep. 2 (U-2932 cells; PRKD3 S6): 0.88 | Tirabrutinib/ctrl. rep. 2 (U-2932 cells; PRKD3 S27): 0.99 | Tirabrutinib/ctrl. rep. 1 (U-2932 cells; PRKD3 S30): 0.97 | Tirabrutinib/ctrl. rep. 1 (U-2932 cells; PRKD3 S31): 0.99 | Tirabrutinib/ctrl. rep. 2 (U-2932 cells; PRKD3 S31): 0.97 | Tirabrutinib/ctrl. rep. 1 (U-2932 cells; PRKD3 S44): 1.09 | Tirabrutinib/ctrl. rep. 2 (U-2932 cells; PRKD3 S44): 1.04 | Tirabrutinib/ctrl. rep. 1 (U-2932 cells; PRKD3 S213): 1.29 | Tirabrutinib/ctrl. rep. 2 (U-2932 cells; PRKD3 S213): 1.25 | Tirabrutinib/ctrl. rep. 2 (U-2932 cells; PRKD3 S364): 1.20 | Tirabrutinib/ctrl. rep. 1 (U-2932 cells; PRKD3 S376): 0.80 | Tirabrutinib/ctrl. rep. 2 (U-2932 cells; PRKD3 S376): 0.94 | Tirabrutinib/ctrl. rep. 1 (U-2932 cells; PRKD3 S391): 0.99 | Tirabrutinib/ctrl. rep. 2 (U-2932 cells; PRKD3 S391): 0.97 | Tirabrutinib/ctrl. rep. 2 (U-2932 cells; PRKD3 S543): 1.05 | Tirabrutinib/ctrl. rep. 1 (U-2932 cells; PRKD3 S731): 0.72 | Tirabrutinib/ctrl. rep. 2 (U-2932 cells; PRKD3 S731): 0.48 | Tirabrutinib/ctrl. rep. 1 (U-2932 cells; PRKD3 S735): 0.85 | Tirabrutinib/ctrl. rep. 2 (U-2932 cells; PRKD3 S735): 0.77 | Tirabrutinib/ctrl. rep. 1 (U-2932 cells; RAF1 S12): 1.45 | Tirabrutinib/ctrl. rep. 2 (U-2932 cells; RAF1 S12): 0.88 | Tirabrutinib/ctrl. rep. 2 (U-2932 cells; RAF1 S316): 0.94 | Tirabrutinib/ctrl. rep. 1 (U-2932 cells; RAF1 S377): 0.98 | Tirabrutinib/ctrl. rep. 2 (U-2932 cells; RAF1 S377): 1.08 | Tirabrutinib/ctrl. rep. 1 (U-2932 cells; RAF1 S641): 1.04 | Tirabrutinib/ctrl. rep. 2 (U-2932 cells; RAF1 S641): 0.98 | Tirabrutinib/ctrl. rep. 2 (U-2932 cells; RAF1 T661): 0.73 | Tirabrutinib/ctrl. rep. 1 (U-2932 cells; RELA S238): 1.26 | Tirabrutinib/ctrl. rep. 2 (U-2932 cells; RELA S238): 0.86 | Tirabrutinib/ctrl. rep. 1 (U-2932 cells; RPS6KA1 S230): 0.99 | Tirabrutinib/ctrl. rep. 2 (U-2932 cells; RPS6KA1 S230): 0.99 | Tirabrutinib/ctrl. rep. 1 (U-2932 cells; RPS6KA1 S389): 1.55 | Tirabrutinib/ctrl. rep. 2 (U-2932 cells; RPS6KA1 S389): 1.00 | Tirabrutinib/ctrl. rep. 1 (U-2932 cells; RPS6KA1 S741): 1.16 | Tirabrutinib/ctrl. rep. 2 (U-2932 cells; RPS6KA1 S741): 0.87 | Tirabrutinib/ctrl. rep. 1 (U-2932 cells; TSC2 S1132): 1.15 | Tirabrutinib/ctrl. rep. 2 (U-2932 cells; TSC2 S1132): 0.89 | Tirabrutinib/ctrl. rep. 1 (U-2932 cells; TSC2 S1254): 0.44 | Tirabrutinib/ctrl. rep. 2 (U-2932 cells; TSC2 S1254): 0.70 | Tirabrutinib/ctrl. rep. 1 (U-2932 cells; TSC2 S1336): 1.59 | Tirabrutinib/ctrl. rep. 2 (U-2932 cells; TSC2 S1336): 1.33 | Tirabrutinib/ctrl. rep. 1 (U-2932 cells; TSC2 S1346): 1.14 | Tirabrutinib/ctrl. rep. 2 (U-2932 cells; TSC2 S1346): 1.02 | Tirabrutinib/ctrl. rep. 1 (U-2932 cells; TSC2 S1364): 0.82 | Tirabrutinib/ctrl. rep. 2 (U-2932 cells; TSC2 S1364): 0.98 | Tirabrutinib/ctrl. rep. 1 (U-2932 cells; TSC2 S1385): 1.01 | Tirabrutinib/ctrl. rep. 2 (U-2932 cells; TSC2 S1385): 1.30 | Tirabrutinib/ctrl. rep. 1 (U-2932 cells; TSC2 S1411): 0.93 | Tirabrutinib/ctrl. rep. 2 (U-2932 cells; TSC2 S1411): 0.98 | Tirabrutinib/ctrl. rep. 2 (U-2932 cells; TSC2 S1420): 0.93 | Tirabrutinib/ctrl. rep. 2 (U-2932 cells; TSC2 S1448): 1.43 | Tirabrutinib/ctrl. rep. 1 (U-2932 cells; TSC2 S1449): 1.16 | Tirabrutinib/ctrl. rep. 1 (U-2932 cells; TSC2 S1452): 1.16 | Tirabrutinib/ctrl. rep. 2 (U-2932 cells; TSC2 S1452): 1.04 | Tirabrutinib/ctrl. rep. 1 (U-2932 cells; TSC2 S1798): 0.76 | Tirabrutinib/ctrl. rep. 2 (U-2932 cells; TSC2 S1798): 0.73 | Tirabrutinib/ctrl. rep. 2 (U-2932 cells; YBX1 S2): 0.99 | Tirabrutinib/ctrl. rep. 2 (U-2932 cells; YBX1 S3): 0.99 | Tirabrutinib/ctrl. rep. 1 (U-2932 cells; YBX1 S165): 0.98 | Tirabrutinib/ctrl. rep. 2 (U-2932 cells; YBX1 S165): 0.91 | Tirabrutinib/ctrl. rep. 1 (U-2932 cells; YBX1 S167): 0.91 | Tirabrutinib/ctrl. rep. 2 (U-2932 cells; YBX1 S167): 1.13 | inhibition at 0.3 µM (RIPK2): 67%

C=CC(=O)N1CCC[C@@H](n2nc(-c3ccc(Oc4ccccc4)cc3)c3c(N)ncnc32)C1 [Ibrutinib]
remaining activity at 0.3 µM (PKNB(M.tuberculosis)): 93%
